Measured values taken from patent EP4768484A1, “HETEROCYCLIC FUSED RING COMPOUND, AND COMPOSITION AND USE THEREOF” (Shenzhen TargetRx, Inc., priority 2023, dated 2025).

Experiments:
Type in all cases: cell-based
[1] = target: T1, Ba/F3 BCR-ABL1 WT (Homo sapiens, UniProt P00519+P11274); test: Cell growth inhibitory activity assay (CellTiter-Glo), Ba/F3 BCR-ABL1 WT cells; conditions: 72 h, CTG cell viability
T1 construct: BCR (N-terminal fusion partner of the oncoprotein); expressed in transfected cells; host or cells: Ba/F3 (lentiviral transduction, monoclonal line)
Summary of the method: (§1)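 Ba/F3 parental cells or Ba/F3 lines lentivirally transduced with WT or mutant BCR-ABL1, seeded overnight then exposed to serially diluted compound 72 h at 37 °C, 5% CO2. Viability by CellTiter-Glo ATP luminescence with a T0 plate; 0.5% DMSO controls; IC50 from four-parameter nonlinear fit.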

[2] = test system: K562 cells; test: Cell growth inhibitory activity assay (CellTiter-Glo), K562 cells; conditions: Homo sapiens, 72 h, CTG cell viability
Summary of the method: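 Growth inhibition of human K562 cells, sourced from Nanjing Kebai (CBP60529), was assessed with Promega's CellTiter-Glo kit, which measures viability through ATP quantification. Log-phase cells went into the inner wells of 96-well plates, with PBS in edge wells, incubated overnight at 37 °C and 5% CO2, then exposed to serially diluted compound for 72 h.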

[3] = test system: Ba/F3 parental cells; test: Cell growth inhibitory activity assay (CellTiter-Glo), Ba/F3 parental cells; conditions: Mus musculus, BaF3, 72 h, CTG cell viability, read-out: IC50 Ba/F3 BCR-ABL1 Parental
Summary of the method: as §1

[4] = target: T2, Ba/F3 BCR-ABL1 T315I (Homo sapiens, UniProt P00519+P11274, T315I); test: Cell growth inhibitory activity assay (CellTiter-Glo), Ba/F3 BCR-ABL1 T315I cells; conditions: 72 h, CTG cell viability
T2 construct: BCR (N-terminal fusion partner of the oncoprotein); expressed in transfected cells; host or cells: Ba/F3 (lentiviral transduction, monoclonal line)
Summary of the method: as §1

| IC50 [2] | Compound | IC50 [1] | IC50 [3] | IC50 [4] |
| --- | --- | --- | --- | --- |
| ≤ 5 nM | C[C@@H]1COCc2nc3cc(C(=O)Nc4ccc(OC(F)(F)Cl)cc4)cc(-c4cnc5c(c4)-c4nn(-c6nccc(N7CCOCC7)n6)cc4C5)c3n21 [T-88, (R)-N-(4-(chlorodifluoromethoxy)phenyl)-4-methyl-6-(2-(4-morpholinopyrimidin-2-yl)-2,4-dihydropyrazolo[3',4':3,4]cyclopenta[1,2-b]pyridin-7-yl)-3,4-dihydro-1H-benzo[4,5]imidazo[2,1-c][1,4]oxazine-8-carboxamide] | ≤ 5 nM | > 1000 nM | ≤ 5 nM |
| ≤ 5 nM | COc1cccc(-c2ccnc(-n3cc4c(n3)-c3cc(-c5cc(C(=O)Nc6ccc(OC(F)(F)Cl)cc6)cc6nc7n(c56)[C@H](C)COC7)cnc3C4)n2)c1F [T-93, (R)-N-(4-(chlorodifluoromethoxy)phenyl)-6-(2-(4-(2-fluoro-3-methoxyphenyl)pyrimidin-2-yl)-2,4-dihydropyrazolo[3',4':3,4]cyclopenta[1,2-b]pyridin-7-yl)-4-methyl-3,4-dihydro-1H-benzo[4,5]imidazo[2,1-c][1,4]oxazine-8-carboxamide] | ≤ 5 nM | > 1000 nM | ≤ 5 nM |
| ≤ 5 nM | CC(C)n1ncc2c1-c1cc(-c3cc(C(=O)Nc4ccc(OC(F)(F)Cl)cc4)cnc3N3CC[C@@H](F)C3)cnc1C2 [T-10-A, (R)-N-(4-(chlorodifluoromethoxy)phenyl)-6-(3-fluoropyrrolidin-1-yl)-5-(1-isopropyl-1,4-dihydropyrazolo[3',4':3,4]cyclopenta[1,2-b]pyridin-7-yl)nicotinamide] | 5 to 50 nM | > 1000 nM | 5 to 50 nM |
| ≤ 5 nM | N#Cc1cnc(-n2cc3c(n2)-c2cc(-c4cc(C(=O)Nc5ccc(OC(F)(F)Cl)cc5)c(N)nc4N4CC[C@@H](F)C4)cnc2C3)nc1 [T-134, (R)-2-amino-N-(4-(chlorodifluoromethoxy)phenyl)-5-(2-(5-cyanopyrimidin-2-yl)-2,4-dihydropyrazolo[3',4':3,4]cyclooenta[1,2-b]pyridin-7-yl)-6-(3-fluoropyrrolidin-1-yl)nicotinamide] | ≤ 5 nM | 50 to 1000 nM | 50 to 1000 nM |
| ≤ 5 nM | Cc1cc(C(F)(F)F)nc(-n2cc3c(n2)-c2cc(-c4cc(C(=O)Nc5ccc(OC(F)(F)Cl)cc5)cc5nc6n(c45)[C@H](C)COC6)cnc2C3)n1 [T-75, (R)-N-(4-(chlorodifluoromethoxy)phenyl)-4-methyl-6-(2-(4-methyl-6-(trifluoromethyl)pyrimidin-2-yl)-2,4-dihydropyrazolo[3',4':3,4]cyclopenta[1,2-b]pyridin-7-yl)-3,4-dihydro-1H-benzo[4,5]imidazo[2,1-c][1,4]oxazine-8-carboxamide] | ≤ 5 nM | > 1000 nM | ≤ 5 nM |
| ≤ 5 nM | C[C@@H]1COCc2nc3cc(C(=O)Nc4ccc(OC(F)(F)Cl)cc4)cc(-c4cnc5c(c4)-c4nn(-c6ncc7ccccc7n6)cc4C5)c3n21 [T-82-B, (R)-N-(4-(chlorodifluoromethoxy)phenyl)-4-methyl-6-(2-(quinazolin-2-yl)-2,4-dihydropyrazolo[3',4':3,4]cyclopenta[1,2-b]pyridin-7-yl)-3,4-dihydro-1H-benzo[4,5]imidazo[2,1-c][1,4]oxazine-8-carboxamide] | ≤ 5 nM | > 1000 nM | ≤ 5 nM |
| ≤ 5 nM | COc1nc(OC)nc(-n2cc3c(n2)-c2cc(-c4cc(C(=O)Nc5ccc(OC(F)(F)Cl)cc5)cc5nc6n(c45)[C@H](C)COC6)cnc2C3)n1 [T-70, (R)-N-(4-(chlorodifluoromethoxy)phenyl)-6-(2-(4,6-dimethoxy-1,3,5-triazin-2-yl)-2,4-dihydropyrazolo[3',4':3,4]cyclopenta[1,2-b]pyridin-7-yl)-4-methyl-3,4-dihydro-1H-benzo[4,5]imidazo[2,1-c][1,4]oxazine-8-carboxamide] | ≤ 5 nM | > 1000 nM | 5 to 50 nM |
